The test system of test [1] is A2058 human melanoma cells. In words: Cell migration test (LPA-induced, Chemo-Tx). The test is classed as cell-based. The settings on record: LPA 100 nM, 3 hours, read-out: IC50: concentration of the test compound which inhibits the cell migration activity of LPA by 50%. On the procedure:
The cell migration test was carried out using Chemo-Tx (registered trademark) (116-8, Neuro Probe). A2058 human melanoma cells (obtained from European Collection of Cell Culture) were cultured in a serum-free EMEM medium for 24 hours, and then re-suspended in a 0.1% BSA-containing DMEM medium to obtain a cell suspension. The test compound dissolved in DMSO in various concentration was each added to the cell suspension, and the suspension was cultured at 37° C. for 15 minutes (the final DMSO concentration of 0.5%). LPA dissolved in a 0.1% BSA-containing DMEM medium (the final concentration of 100 nM) was added to Chemo-Tx 96 well plate, and a Chemo-Tx filter which had been coated with 0.001% Fibronectin on the both surfaces was put on the plate. The suspension of cultured cells (25,000 cells) was added onto the upper surface of the filter and further cultured at 37° C. for 3 hours, and the cells on the upper surface of the filter were removed. After the filter was removed and dried, the cells which had migrated to the lower surface of the filter were stained using Diff-Quik stain (16920, Sysmex). The absorbance of the filter (570 nm) was measured and the concentration of the test compound which inhibits the cell migration activity of LPA by 50%, (1050) was determined by non-linear regression analysis using EXSAS (version 7.6.0, Arm Systex).

Test [2] deals with T1, human LPA1 receptor (Homo sapiens, UniProt Q92633).
T1 construct: purchased ChanTest A324; host or cells: RH 7777 cells (recombinant expression; membrane fraction)
Briefly: Binding test of GTPγS to LPA1 receptor. The test is classed as biochemical. Conditions: membrane fraction of RH 7777 cells expressed with human LPA1 receptor; LPA 100 nM; read-out: IC50: concentration of the test compound which inhibits the binding of LPA1 receptor and [35S]GTPγS by 50%. As to the method: Binding test of GTPγS to LPA1 receptor
5 μg of the membrane fraction of RH 7777 cells expressed with human LPA1 receptor (A324, ChanTest) was suspended in a reaction buffer (20 mM HEPES, 100 mM NaCl, 10 mM MgCl2, 10 μM GDP, 5 μg saponin, 0.2% BSA, 0.1 nM [^35S]GTPγS (NEG030X, Perkin Elmer), pH 7.4), and the test compound dissolved in DMSO in various concentrations was added. After preincubation at 30° C. for 15 minutes, LPA (L7260, Sigma, the final concentration of 100 nM) was added, and the suspension was incubated at 30° C. for 30 minutes. The membrane fraction was collected onto a glass fiber filter (GF/B, Whatman) by using a cell harvester (M30, Brandel), and washed with a 10 mM phosphate buffer (pH 7.4). The radioactivity of the membrane fraction was measured using a liquid scintillation analyzer (2900TR, Packard) and the concentration of the test compound which inhibits the binding of LPA1 receptor and [^35S]GTPγS by 50%, (1050) was determined by non-linear regression analysis using EXSAS (version 7.6.0, Arm Systex).

Test [3] has as its system LPA-induced histamine release. In words: LPA-induced histamine release test in mouse. In kind it is in vivo. Conditions: male CD1 mice; oral dose of 10 mg/kg; LPA 300 μg/mouse via tail vein 4 hours after administration; blood 2 minutes after LPA; read-out: efficacy rate (rate of individuals which showed the inhibition rate of 80% or more of plasma histamine). As to the method: LPA-Induced Histamine Release Test in Mouse
LPA-induced histamine release test in mouse was carried out according to a method by Swaney et al. (The Journal of Pharmacology and Experimental Therapeutics, 336 (2011), pages 693-700). The test compound was suspended in 0.5% methylcellulose solution (133-14255, Wako), and orally administered to male CD1 mice (body weight: 30 to 40 g, supplied by Charles River Laboratories Japan) at a dose of 10 mL/kg. 4 hours after administration, LPA (857130P, Avanti) dissolved in a 0.1% BSA-containing PBS was administered via the tail vein (300 μg/mouse). Immediately, the mouse was anesthetized with isoflurane, and blood was collected via a vein 2 minutes after the administration of LPA. The blood was put into a test tube containing EDTA, and centrifuged at 4° C., 2,000×g, for 10 minutes to obtain the plasma.
The histamine concentration in the plasma was measured by EIA kit (62HTMPEB, Cisbio Bioassays).

T1 sequence (Q92633 whole entry): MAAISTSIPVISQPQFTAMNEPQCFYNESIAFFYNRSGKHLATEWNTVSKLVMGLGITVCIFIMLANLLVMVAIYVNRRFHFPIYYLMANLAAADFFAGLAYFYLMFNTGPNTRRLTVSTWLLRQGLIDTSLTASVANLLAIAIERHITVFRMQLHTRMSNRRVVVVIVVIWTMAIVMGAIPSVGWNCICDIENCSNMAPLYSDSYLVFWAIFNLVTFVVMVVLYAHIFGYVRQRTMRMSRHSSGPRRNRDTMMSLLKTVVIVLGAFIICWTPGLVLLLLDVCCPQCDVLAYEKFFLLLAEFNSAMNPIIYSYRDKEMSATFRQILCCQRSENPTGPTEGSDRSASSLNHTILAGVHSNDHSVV

In the case of `CC(OC(=O)Nc1cc(Cl)sc1-c1ccc(-c2ccc(C3(C(=O)O)CC3)cc2)cc1)c1ccccc1Cl` (racemic) [I-51, (RS)-1-{4′-[5-Chloro-3-({[1-(2-chlorophenyl)ethoxy]carbonyl}amino)thiophen-2-yl]-[1,1′-biphenyl]-4-yl}cyclopropanecarboxylic acid], the IC50 in test [1] and in test [2] was at most 200 nM in each case.
`CC(OC(=O)Nc1cc(F)sc1-c1ccc(-c2ccc(C3(C(=O)O)CC3)cc2)cc1)c1ccsc1` (racemic) [I-639, (RS)-1-{4′-[5-Fluoro-3-({[1-(thiophen-3-yl)ethoxy]carbonyl}amino)thiophen-2-yl]-[1,1′-biphenyl]-4-yl}cyclopropanecarboxylic acid]: the IC50 in test [1] was at most 200 nM. The responders at 10 mg/kg in test [3] is at least 50%.
With `C[C@@H](OC(=O)Nc1cc(F)sc1-c1ccc(-c2ccc(C3(C(=O)O)CC3)cc2)cc1)c1ccsc1` [I-640, (R)-1-{4′-[5-Fluoro-3-({[1-(thiophen-3-yl)ethoxy]carbonyl}amino)thiophen-2-yl]-[1,1′-biphenyl]-4-yl}cyclopropanecarboxylic acid], the IC50 in test [1] is at most 200 nM. Also, in test [3], the responders at 10 mg/kg is at least 50%.
Consider `COc1cc(-c2sc(Cl)cc2NC(=O)O[C@H](C)c2ccccc2)ccc1-c1ccc(C2(C(=O)O)CC2)cc1` [I-350, (R)-1-[4′-(5-Chloro-3-{[(1-phenylethoxy)carbonyl]amino}thiophen-2-yl)-2′-methoxy-[1,1′-biphenyl]-4-yl]cyclopropanecarboxylic acid], for which, in test [1], the IC50 was at most 200 nM. Further, the responders at 10 mg/kg in test [3] is at least 50%.
On to `CC(OC(=O)Nc1cc(Br)sc1-c1ccc(-c2ccc(C3(C(=O)O)CC3)cc2)cc1)c1ccccc1Cl` (racemic) [I-11, (RS)-1-{4′-[5-Bromo-3-({[1-(2-chlorophenyl)ethoxy]carbonyl}amino)thiophen-2-yl]-[1,1′-biphenyl]-4-yl}cyclopropanecarboxylic acid], for which the IC50 in test [2] was at most 200 nM.
As to `COc1cc(-c2sc(Cl)cc2NC(=O)O[C@H](C)c2ccccc2C)ccc1-c1ccc(C2(C(=O)O)CC2)cc1` [I-374, (R)-1-{4′-[5-Chloro-3-({[1-(o-tolyl)ethoxy]carbonyl}amino)thiophen-2-yl]-2′-methoxy-[1,1′-biphenyl]-4-yl}cyclopropanecarboxylic acid], the IC50 in test [1] is at most 200 nM. Besides, the responders at 10 mg/kg in test [3] is at least 50%.
Regarding `Cc1cscc1[C@@H](C)OC(=O)Nc1cc(Cl)sc1-c1ccc(-c2ccc(C3(C(=O)O)CC3)cc2)cc1` [I-606, (R)-1-{4′-[5-Chloro-3-({[1-(4-methylthiophen-3-yl)ethoxy]carbonyl}amino)thiophen-2-yl]-[1,1′-biphenyl]-4-yl}cyclopropanecarboxylic acid], the IC50 in test [1] is at most 200 nM. Besides, the responders at 10 mg/kg in test [3] was at least 50%.
With `COc1cc(-c2sc(Cl)cc2NC(=O)O[C@H](C)c2cccc(F)c2)ccc1-c1ccc(C2(C(=O)O)CC2)cc1` [I-358, (R)-1-{4′-[5-Chloro-3-({[1-(3-fluorophenyl)ethoxy]carbonyl}amino)thiophen-2-yl]-2′-methoxy-[1,1′-biphenyl]-4-yl}cyclopropanecarboxylic acid], the IC50 in test [1] was at most 200 nM. Also, in test [3], the responders at 10 mg/kg is at least 50%.
As to `C[C@@H](OC(=O)Nc1cc(Cl)sc1-c1ccc(-c2ccc(C3(C(=O)O)CC3)cc2)cc1)c1ccsc1` [I-596, (R)-1-{4′-[5-Chloro-3-({[1-(thiophen-3-yl)ethoxy]carbonyl}amino)thiophen-2-yl]-[1,1′-biphenyl]-4-yl}cyclopropanecarboxylic acid], the IC50 in test [1] is at most 200 nM. Besides, the responders at 10 mg/kg in test [3] is at least 50%.
With `C[C@@H](OC(=O)Nc1cc(Cl)sc1-c1ccc(-c2ccc(C3(C(=O)O)CC3)cc2)cc1)c1ccc(F)cc1Cl` [I-76, (R)-1-{4′-[5-Chloro-3-({[1-(2-chloro-4-fluorophenyl)ethoxy]carbonyl}amino)thiophen-2-yl]-[1,1′-biphenyl]-4-yl}cyclopropanecarboxylic acid], the IC50 in test [1] and in test [2] was at most 200 nM in each case.
Take `COc1cc(-c2sc(F)cc2NC(=O)O[C@H](C)c2ccccc2C)ccc1-c1ccc(C2(C(=O)O)CC2)cc1` [I-450, (R)-1-{4′-[5-Fluoro-3-({[1-(o-tolyl)ethoxy]carbonyl}amino)thiophen-2-yl]-2′-methoxy-[1,1′-biphenyl]-4-yl}cyclopropanecarboxylic acid]: the IC50 in test [1] was at most 200 nM. In addition, the responders at 10 mg/kg in test [3] was at least 50%.
With `COc1cc(-c2sc(Cl)cc2NC(=O)O[C@H](C)c2cc(F)ccc2F)ccc1-c1ccc(C2(C(=O)O)CC2)cc1` [I-388, (R)-1-{4′-[5-Chloro-3-({[1-(2,5-difluorophenyl)ethoxy]carbonyl}amino)thiophen-2-yl]-2′-methoxy-[1,1′-biphenyl]-4-yl}cyclopropanecarboxylic acid], the IC50 in test [1] is at most 200 nM. The responders at 10 mg/kg in test [3] is at least 50%.
Turning to `C[C@@H](OC(=O)Nc1cc(Cl)sc1-c1ccc(-c2ccc(C3(C(=O)O)CC3)cc2)cc1)c1ccc(F)cc1F` [I-64, (R)-1-{4′-[5-Chloro-3-({[1-(2,4-difluorophenyl)ethoxy]carbonyl}amino)thiophen-2-yl]-[1,1′-biphenyl]-4-yl}cyclopropanecarboxylic acid], the IC50 in test [1] was at most 200 nM. Moreover, the responders at 10 mg/kg in test [3] was at least 50%.
Taken in the same sequence, the figures for `Cc1ccccc1[C@@H](C)OC(=O)Nc1cc(F)sc1-c1ccc(-c2ccc(C3(C(=O)O)CC3)cc2)cc1` [I-136, (R)-1-{4′-[5-Fluoro-3-({[1-(o-tolyl)ethoxy]carbonyl}amino)thiophen-2-yl]-[1,1′-biphenyl]-4-yl}cyclopropanecarboxylic acid] were at most 200 nM and at least 50%.
`COc1cc(-c2sc(Cl)cc2NC(=O)O[C@H](C)c2ccc(Cl)cc2)ccc1-c1ccc(C2(C(=O)O)CC2)cc1` [I-370, (R)-1-{4′-[5-Chloro-3-({[1-(4-chlorophenyl)ethoxy]carbonyl}amino)thiophen-2-yl]-2′-methoxy-[1,1′-biphenyl]-4-yl}cyclopropanecarboxylic acid]: in test [1], the IC50 was at most 200 nM. Further, the responders at 10 mg/kg in test [3] is at least 50%.
Take `C[C@@H](OC(=O)Nc1cc(F)sc1-c1ccc(-c2ccc(C3(C(=O)O)CC3)cc2)cc1)c1ccc(F)cc1F` [I-140, (R)-1-{4′-[3-({[1-(2,4-Difluorophenyl)ethoxy]carbonyl}amino)-5-fluorothiophen-2-yl]-[1,1′-biphenyl]-4-yl}cyclopropanecarboxylic acid]: the IC50 in test [1] and in test [2] was at most 200 nM in each case.
Regarding `C[C@@H](OC(=O)Nc1cc(Cl)sc1-c1ccc(-c2ccc(C3(C(=O)O)CC3)cc2)cc1)c1cc(F)ccc1F` [I-68, (R)-1-{4′-[5-Chloro-3-({[1-(2,5-difluorophenyl)ethoxy]carbonyl}amino)thiophen-2-yl]-[1,1′-biphenyl]-4-yl}cyclopropanecarboxylic acid], the IC50 in test [1] was at most 200 nM. The responders at 10 mg/kg in test [3] was at least 50%.
Taken in the same sequence, the figures for `C[C@@H](OC(=O)Nc1cc(Cl)sc1-c1ccc(-c2ccc(C3(C(=O)O)CC3)cc2)nc1)c1ccccc1` [I-196, (R)-1-{4-[5(5-Chloro-3-{[(1-phenylethoxy)carbonyl]amino}thiophen-2-yl)pyridine-2-yl]phenyl}cyclopropanecarboxylic acid] were at most 200 nM and at least 50%.

For the origin of these results see patent US10597375B2, “Halogen-substituted heterocyclic compound” (UBE INDUSTRIES, LTD., priority 2012, dated 2020).
